According to patent US11028086B2, “Pyrido-imidazo rifamycins” (Biofer S.p.A., priority 2017, dated 2021):
In brackets after ≈: the same amount, converted by molar mass.

Experiments:
Type in all cases: cell-based
[1] = tested on: Bacillus Subtilis ATCC 6633; assay: MIC by serial dilution, Strain B; conditions: ATCC6633, range between last concentration with growth and first without growth
Description: (§1) The MICs were calculated using the serial dilution method, and are expressed as the range between the last concentration at which the bacterial strain grows and the first concentration at which the strain tested no longer grows.

Escherichia Coli NK12 = assay: MIC by serial dilution, Strain D; conditions: COLINK12, range between last concentration with growth and first without growth
Description: as §1

[2] = tested on: Escherichia Coli ATCC 25922; assay: MIC by serial dilution, Strain C; conditions: ATCC25922, range between last concentration with growth and first without growth
Description: as §1

[3] = tested on: Staphylococcus aureus IM149; assay: MIC by serial dilution, Strain A; conditions: for MIC: range between last concentration with growth and first without growth
Description: as §1

[4] = tested on: Gram-positive and Gram-negative strains; assay: Antibacterial activity, overall statements on the MIC test
Description: as §1

SMILES	MIC [1]	MIC (Escherichia Coli NK12)	MIC [2]	MIC [3]	antibacterial activity (in words) [4]	MIC against strain A compared with RFX [3]
CO[C@H]1/C=C/O[C@@]2(C)Oc3c(C)c(O)c4c(O)c(c5c(nc6cc(CO)ccn65)c4c3C2=O)NC(=O)/C(C)=C\C=C\[C@H](C)[C@H](O)[C@@H](C)[C@@H](O)[C@@H](C)[C@H](OC(C)=O)[C@@H]1C [Example 1, 4′-methylol-4-desoxypyrido[1′,2′-1,2]imidazo[5,4-c]rifamycin SV]	2 to 4 µg/mL (≈ 2.49 to 4.99 µM)	4 to 8 µg/mL (≈ 4.99 to 9.98 µM)	8 to 16 µg/mL (≈ 9.98 to 20 µM)	8 to 16 µg/mL (≈ 9.98 to 20 µM)	–	–
CO[C@H]1/C=C/O[C@@]2(C)Oc3c(C)c(O)c4c(O)c(c5c(nc6cc(C=O)ccn65)c4c3C2=O)NC(=O)/C(C)=C\C=C\[C@H](C)[C@H](O)[C@@H](C)[C@@H](O)[C@@H](C)[C@H](OC(C)=O)[C@@H]1C [Example 2, 4′-formyl-4-desoxypyrido[1′,2′-1,2]imidazo[5,4-c]rifamycin SV]	> 64 µg/mL	> 64 µg/mL	> 64 µg/mL	> 64 µg/mL	–	–
CO[C@H]1/C=C/O[C@@]2(C)Oc3c(C)c(O)c4c(O)c(c5c(nc6cc(/C=N/N(C)C)ccn65)c4c3C2=O)NC(=O)/C(C)=C\C=C\[C@H](C)[C@H](O)[C@@H](C)[C@@H](O)[C@@H](C)[C@H](OC(C)=O)[C@@H]1C [Example 5, 4′-[(N,N-dimethylamino)iminomethyl]-4-desoxypyrido[1′,2′-1,2]imidazo[5,4-c]rifamycin SV]	0.062 to 0.125 µg/mL (≈ 0.0736 to 0.148 µM)	32 to 64 µg/mL (≈ 38 to 76 µM)	32 to 64 µg/mL (≈ 38 to 76 µM)	0.03 to 0.06 µg/mL (≈ 0.0356 to 0.0713 µM)	–	–
CO[C@H]1/C=C/O[C@@]2(C)Oc3c(C)c(O)c4c(O)c(c5c(nc6cc(/C=N/NC(=O)c7ccncc7)ccn65)c4c3C2=O)NC(=O)/C(C)=C\C=C\[C@H](C)[C@H](O)[C@@H](C)[C@@H](O)[C@@H](C)[C@H](OC(C)=O)[C@@H]1C [Example 6, 4′-[(4-carboxyamidopyridyl)iminomethyl]-4-desoxypyrido[1′,2′-1,2]imidazo[5,4-c]rifamycin SV]	8 to 16 µg/mL (≈ 8.71 to 17.4 µM)	32 to 64 µg/mL (≈ 34.8 to 69.6 µM)	> 64 µg/mL	> 64 µg/mL	–	–
CO/N=C/c1ccn2c(c1)nc1c3c4c5c(C)c(O)c3c(O)c(c12)NC(=O)/C(C)=C\C=C\[C@H](C)[C@H](O)[C@@H](C)[C@@H](O)[C@@H](C)[C@H](OC(C)=O)[C@H](C)[C@@H](OC)/C=C/O[C@@](C)(O5)C4=O [Example 13, 4′-(N-methoxy)-iminomethyl-4-desoxypyrido[1′,2′-1,2]imidazo[5,4-c]rifamycin SV]	< 0.015 µg/mL	8 to 16 µg/mL (≈ 9.65 to 19.3 µM)	8 to 16 µg/mL (≈ 9.65 to 19.3 µM)	< 0.015 µg/mL	fully comparable to that of RFX	lower than RFX
CO[C@H]1/C=C/O[C@@]2(C)Oc3c(C)c(O)c4c(O)c(c5c(nc6cc(/C=N/C(C)C)ccn65)c4c3C2=O)NC(=O)/C(C)=C\C=C\[C@H](C)[C@H](O)[C@@H](C)[C@@H](O)[C@@H](C)[C@H](OC(C)=O)[C@@H]1C [Example 14]	8 to 16 µg/mL (≈ 9.51 to 19 µM)	8 to 16 µg/mL (≈ 9.51 to 19 µM)	8 to 16 µg/mL (≈ 9.51 to 19 µM)	0.03 to 0.06 µg/mL (≈ 0.0357 to 0.0713 µM)	fully comparable to that of RFX	lower than RFX
CO[C@H]1/C=C/O[C@@]2(C)Oc3c(C)c(O)c4c(O)c(c5c(nc6cc(/C=N/N7CCOCC7)ccn65)c4c3C2=O)NC(=O)/C(C)=C\C=C\[C@H](C)[C@H](O)[C@@H](C)[C@@H](O)[C@@H](C)[C@H](OC(C)=O)[C@@H]1C [Example 15]	8 to 16 µg/mL (≈ 9.05 to 18.1 µM)	4 to 8 µg/mL (≈ 4.52 to 9.05 µM)	8 to 16 µg/mL (≈ 9.05 to 18.1 µM)	< 0.015 µg/mL	fully comparable to that of RFX	lower than RFX

Second part, led by results:

MIC [1]	MIC (Escherichia Coli NK12)	MIC [2]	MIC [3]	SMILES	antibacterial activity (in words) [4]	MIC against strain A compared with RFX [3]
0.062 to 0.125 µg/mL (≈ 0.0703 to 0.142 µM)	8 to 16 µg/mL (≈ 9.07 to 18.1 µM)	4 to 8 µg/mL (≈ 4.54 to 9.07 µM)	0.03 to 0.06 µg/mL (≈ 0.034 to 0.068 µM)	CO[C@H]1/C=C/O[C@@]2(C)Oc3c(C)c(O)c4c(O)c(c5c(nc6cc(/C=N/N7CCCCC7)ccn65)c4c3C2=O)NC(=O)/C(C)=C\C=C\[C@H](C)[C@H](O)[C@@H](C)[C@@H](O)[C@@H](C)[C@H](OC(C)=O)[C@@H]1C [Example 4, 4′-[(1-piperidinyl)iminomethyl]-4-desoxypyrido[1′,2′-1,2]imidazo[5,4-c]rifamycin SV]	–	–
0.062 to 0.125 µg/mL (≈ 0.0736 to 0.148 µM)	32 to 64 µg/mL (≈ 38 to 76 µM)	32 to 64 µg/mL (≈ 38 to 76 µM)	0.03 to 0.06 µg/mL (≈ 0.0356 to 0.0713 µM)	CO[C@H]1/C=C/O[C@@]2(C)Oc3c(C)c(O)c4c(O)c(c5c(nc6ccc(/C=N/N(C)C)cn65)c4c3C2=O)NC(=O)/C(C)=C\C=C\[C@H](C)[C@H](O)[C@@H](C)[C@@H](O)[C@@H](C)[C@H](OC(C)=O)[C@@H]1C [Example 7, 5′-[(N,N-dimethylamino)iminomethyl]-4-desoxypyrido[1′,2′-1,2]imidazo[5,4-c]rifamycin SV]	–	–
0.062 to 0.125 µg/mL (≈ 0.0703 to 0.142 µM)	8 to 16 µg/mL (≈ 9.07 to 18.1 µM)	4 to 8 µg/mL (≈ 4.54 to 9.07 µM)	0.03 to 0.06 µg/mL (≈ 0.034 to 0.068 µM)	CO[C@H]1/C=C/O[C@@]2(C)Oc3c(C)c(O)c4c(O)c(c5c(nc6ccc(/C=N/N7CCCCC7)cn65)c4c3C2=O)NC(=O)/C(C)=C\C=C\[C@H](C)[C@H](O)[C@@H](C)[C@@H](O)[C@@H](C)[C@H](OC(C)=O)[C@@H]1C [Example 8, 5′-[(1-piperidinyl)iminomethyl]-4-desoxypyrido[1′,2′-1,2]imidazo[5,4-c]rifamycin SV]	–	–
4 to 8 µg/mL (≈ 4.76 to 9.52 µM)	32 to 64 µg/mL (≈ 38.1 to 76.2 µM)	32 to 64 µg/mL (≈ 38.1 to 76.2 µM)	8 to 16 µg/mL (≈ 9.52 to 19 µM)	CO[C@H]1/C=C/O[C@@]2(C)Oc3c(C)c(O)c4c(O)c(c5c(nc6ccc(/C=N/N7CCCCC7)cn65)c4c3C2=O)NC(=O)/C(C)=C\C=C\[C@H](C)[C@H](O)[C@@H](C)[C@@H](O)[C@@H](C)[C@H](O)[C@@H]1C [Example 11, 25-desacetyl-5′-[(1-piperidinyl)iminomethyl]-4-desoxypyrido[1′,2′-1,2]imidazo[5,4-c]rifamycin SV]	–	–
4 to 8 µg/mL (≈ 5 to 10 µM)	> 64 µg/mL	> 64 µg/mL	8 to 16 µg/mL (≈ 10 to 20 µM)	CO[C@H]1/C=C/O[C@@]2(C)Oc3c(C)c(O)c4c(O)c(c5c(nc6ccc(/C=N/N(C)C)cn65)c4c3C2=O)NC(=O)/C(C)=C\C=C\[C@H](C)[C@H](O)[C@@H](C)[C@@H](O)[C@@H](C)[C@H](O)[C@@H]1C [Example 12, 25-desacetyl-5′-[(N,N-dimethylamino)iminomethyl]-4-desoxypyrido[1′,2′-1,2]imidazo[5,4-c]rifamycin SV]	–	–
